Experiments:
Type in all cases: in vivo
Settings in all cases: wettable powder applied 3 days after transplanting, judged after 25 days
[1] = system: barnyardgrass (Echinochloa oryzicola Vasing.); test: Test Example 1: herbicidal effects, paddy-field pot test
Summary of the method: (§1)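 Herbicidal effect and crop injury were rated 0 (0-10% inhibition) to 5 (91-100%) 25 days after treatment. Water-diluted wettable powder was applied to flooded greenhouse pots 3 days after transplanting 2.2-leaf rice. The pots held seeded weeds and sprouted Cyperus serotinus tubers.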

Cyperus serotinus = test: as above
Summary of the method: as §1

[2] = system: annual broad-leaved weeds (Lindernia spp., Rotala indica); test: as above
Summary of the method: as §1

Scirpus joncoides = test: as above
Summary of the method: as §1

[3] = system: transplanted paddy-field rice; test: Test Example 1: crop injury against transplanted paddy-field rice
Summary of the method: as §1

SMILES | Herbicidal effects Barnyard grass ([1]; chemical dosage 10 g/a) | Herbicidal effects Barnyard grass ([1]; chemical dosage 20 g/a) | Herbicidal effects Cyperus serotinus (Cyperus serotinus; chemical dosage 10 g/a) | Herbicidal effects Cyperus serotinus (Cyperus serotinus; chemical dosage 20 g/a) | Herbicidal effects Broad leaf ([2]; chemical dosage 10 g/a) | Herbicidal effects Broad leaf ([2]; chemical dosage 20 g/a) | Herbicidal effects Scirpus joncoides (Scirpus joncoides; chemical dosage 10 g/a) | Herbicidal effects Scirpus joncoides (Scirpus joncoides; chemical dosage 20 g/a) | Crop injury against transplanted rice ([3]; chemical dosage 10 g/a) | Crop injury against transplanted rice ([3]; chemical dosage 20 g/a) | Herbicidal effects Barnyard grass ([1]; chemical dosage 12.5 g/a) | Herbicidal effects Barnyard grass ([1]; chemical dosage 25 g/a) | Herbicidal effects Cyperus serotinus (Cyperus serotinus; chemical dosage 12.5 g/a) | Herbicidal effects Cyperus serotinus (Cyperus serotinus; chemical dosage 25 g/a) | Herbicidal effects Broad leaf ([2]; chemical dosage 12.5 g/a) | Herbicidal effects Broad leaf ([2]; chemical dosage 25 g/a) | Herbicidal effects Scirpus joncoides (Scirpus joncoides; chemical dosage 12.5 g/a) | Herbicidal effects Scirpus joncoides (Scirpus joncoides; chemical dosage 25 g/a) | Crop injury against transplanted rice ([3]; chemical dosage 12.5 g/a) | Crop injury against transplanted rice ([3]; chemical dosage 25 g/a) | also measured
Cc1ccccc1Oc1nnc(Cl)cc1OS(C)(=O)=O [Example 356] | 2 (Growth inhibition rate; 31 to 50%) | 3 (Growth inhibition rate; 51 to 70%) | 5 (Growth inhibition rate; 91 to 100%) | 5 (Growth inhibition rate; 91 to 100%) | 4 (Growth inhibition rate; 71 to 90%) | 5 (Growth inhibition rate; 91 to 100%) | 3 (Growth inhibition rate; 51 to 70%) | 5 (Growth inhibition rate; 91 to 100%) | 0 (Growth inhibition rate; 0 to 10%) | 0 (Growth inhibition rate; 0 to 10%) | – | – | – | – | – | – | – | – | – | – | –
Oc1cc(Cl)nnc1Oc1cccc2sccc12 [Example 185] | – | – | – | – | – | – | – | – | – | – | – | – | – | – | – | – | – | – | – | – | Herbicidal effects Barnyard grass ([1]; chemical dosage 5 g/a): 1 (Growth inhibition rate; 11 to 30%); Herbicidal effects Cyperus serotinus (Cyperus serotinus; chemical dosage 5 g/a): 3 (Growth inhibition rate; 51 to 70%); Herbicidal effects Broad leaf ([2]; chemical dosage 5 g/a): 3 (Growth inhibition rate; 51 to 70%); Herbicidal effects Scirpus joncoides (Scirpus joncoides; chemical dosage 5 g/a): 2 (Growth inhibition rate; 31 to 50%); Crop injury against transplanted rice ([3]; chemical dosage 5 g/a): 0 (Growth inhibition rate; 0 to 10%)
CCc1cccc(C)c1Oc1nnc(Cl)cc1O [Example 260] | 2 (Growth inhibition rate; 31 to 50%) | 3 (Growth inhibition rate; 51 to 70%) | 5 (Growth inhibition rate; 91 to 100%) | 5 (Growth inhibition rate; 91 to 100%) | 5 (Growth inhibition rate; 91 to 100%) | 5 (Growth inhibition rate; 91 to 100%) | 5 (Growth inhibition rate; 91 to 100%) | 5 (Growth inhibition rate; 91 to 100%) | 0 (Growth inhibition rate; 0 to 10%) | 0 (Growth inhibition rate; 0 to 10%) | – | – | – | – | – | – | – | – | – | – | –
Oc1cc(Cl)nnc1Oc1c(F)cccc1Cl [Example 232] | 4 (Growth inhibition rate; 71 to 90%) | 4 (Growth inhibition rate; 71 to 90%) | 4 (Growth inhibition rate; 71 to 90%) | 5 (Growth inhibition rate; 91 to 100%) | 5 (Growth inhibition rate; 91 to 100%) | 5 (Growth inhibition rate; 91 to 100%) | 3 (Growth inhibition rate; 51 to 70%) | 4 (Growth inhibition rate; 71 to 90%) | 0 (Growth inhibition rate; 0 to 10%) | 0 (Growth inhibition rate; 0 to 10%) | – | – | – | – | – | – | – | – | – | – | –
CCc1ccccc1Oc1nnc(Cl)cc1O [Example 55] | – | – | – | – | – | – | – | – | – | – | 2 (Growth inhibition rate; 31 to 50%) | 2 (Growth inhibition rate; 31 to 50%) | 5 (Growth inhibition rate; 91 to 100%) | 5 (Growth inhibition rate; 91 to 100%) | 5 (Growth inhibition rate; 91 to 100%) | 5 (Growth inhibition rate; 91 to 100%) | 3 (Growth inhibition rate; 51 to 70%) | 4 (Growth inhibition rate; 71 to 90%) | 0 (Growth inhibition rate; 0 to 10%) | 0 (Growth inhibition rate; 0 to 10%) | –
CCCc1cccc(F)c1Oc1nnc(Cl)cc1O [Example 234] | – | – | – | – | – | – | – | – | – | – | 0 (Growth inhibition rate; 0 to 10%) | 0 (Growth inhibition rate; 0 to 10%) | 5 (Growth inhibition rate; 91 to 100%) | 5 (Growth inhibition rate; 91 to 100%) | 5 (Growth inhibition rate; 91 to 100%) | 5 (Growth inhibition rate; 91 to 100%) | 3 (Growth inhibition rate; 51 to 70%) | 4 (Growth inhibition rate; 71 to 90%) | 0 (Growth inhibition rate; 0 to 10%) | 0 (Growth inhibition rate; 0 to 10%) | –
Cc1cccc(C(C)(C)C)c1Oc1nnc(Cl)cc1O [Example 22] | – | – | – | – | – | – | – | – | – | – | 1 (Growth inhibition rate; 11 to 30%) | 2 (Growth inhibition rate; 31 to 50%) | 3 (Growth inhibition rate; 51 to 70%) | 4 (Growth inhibition rate; 71 to 90%) | 5 (Growth inhibition rate; 91 to 100%) | 5 (Growth inhibition rate; 91 to 100%) | 2 (Growth inhibition rate; 31 to 50%) | 4 (Growth inhibition rate; 71 to 90%) | 1 (Growth inhibition rate; 11 to 30%) | 2 (Growth inhibition rate; 31 to 50%) | –
O=C(Oc1cc(Cl)nnc1Oc1ccccc1C1CC1)C1CC1 [Example 327] | 4 (Growth inhibition rate; 71 to 90%) | 4 (Growth inhibition rate; 71 to 90%) | 5 (Growth inhibition rate; 91 to 100%) | 5 (Growth inhibition rate; 91 to 100%) | 5 (Growth inhibition rate; 91 to 100%) | 5 (Growth inhibition rate; 91 to 100%) | 5 (Growth inhibition rate; 91 to 100%) | 5 (Growth inhibition rate; 91 to 100%) | 0 (Growth inhibition rate; 0 to 10%) | 0 (Growth inhibition rate; 0 to 10%) | – | – | – | – | – | – | – | – | – | – | –
Oc1cc(Cl)nnc1Oc1cccc(F)c1F [Example 154] | 1 (Growth inhibition rate; 11 to 30%) | 2 (Growth inhibition rate; 31 to 50%) | 5 (Growth inhibition rate; 91 to 100%) | 5 (Growth inhibition rate; 91 to 100%) | 5 (Growth inhibition rate; 91 to 100%) | 5 (Growth inhibition rate; 91 to 100%) | 3 (Growth inhibition rate; 51 to 70%) | 5 (Growth inhibition rate; 91 to 100%) | 0 (Growth inhibition rate; 0 to 10%) | 0 (Growth inhibition rate; 0 to 10%) | – | – | – | – | – | – | – | – | – | – | –
Cc1ccc(C)c(Oc2nnc(Cl)cc2O)c1Br [Example 290] | 0 (Growth inhibition rate; 0 to 10%) | – | 5 (Growth inhibition rate; 91 to 100%) | – | 5 (Growth inhibition rate; 91 to 100%) | – | 4 (Growth inhibition rate; 71 to 90%) | – | 0 (Growth inhibition rate; 0 to 10%) | – | – | – | – | – | – | – | – | – | – | – | –
